Consider 19 compounds from patent publication US20230310428A1, “EGFR INHIBITOR AND PREPARATION METHOD AND USE THEREOF” (HONGYUN BIOTECH CO., LTD., priority 2020, published 2023).

Common to all, as to test: Growth inhibitory activity of compounds on BaF3 cell lines stably transfected with kinase (MTS, 48 h)
Type in all cases: cell-based

Test [1] addresses T1, various mutants of kinase EGFR (BaF3 cell lines stably transfected with kinase) (Homo sapiens, UniProt P00533, L858R/T790M).
T1 construct: expressed in transfected cells; host or cells: BaF3
The conditions noted are these: BaF3 cells stably transfected with EGFR L858R/T790M, read-out: IC50, growth inhibition, L858R/T790M. How it is done:
(§1) The activity of compounds against various mutants of kinase EGFR was evaluated by their effect of inhibiting growth of BaF3 cell lines stably transfected with kinase. The specific test method was given as follows:
(§2) 1) Culture medium: DMEM (Dulbecco’s modified eagle medium) or RPMI 1640 (containing 10% fetal bovine serum, 100 µg/mL ampicillin, 100 µg/mL streptomycin).
(§3) 2) Reagent: MTS reaction solution (containing 2 mg/mL of MTS [3-(4,5-dimethylthiazol-2-yl)-5-(3-carboxymethoxyphenyl)-2-(4-sulfophenyl)-2H-tetrazoliu m, inner Salt]; 100 µg/mL of PES ([…])).
(§4) 3) Compound test: cells were incubated into a 96-well culture plate, the volume of cytosol was 90 µL, and then 10 µL of the compound at each gradient concentration was added. That is, the highest concentration was 10 µM, which was diluted stepwise by ⅓, and 8 concentration points were set in total; 0.1% DMSO (dimethyl sulfoxide) was contained in the system. The cell plate with uniformly mixed compound was cultured in a cell culture incubator (37° C.; 5% CO2) for 48 h, then 20 µL of MTS reaction solution was added, uniformly mixed and incubated in the cell culture incubator (37° C.; 5% CO2) for 1-4 h. OD values at 490 nm were measured by a microplate reader (VARIOSKAN FLASH, Thermo). Two parallels were set in each group of experiments, with 0.1% (a final concentration) DMSO as a negative control, and a culture medium without cells and compounds as a blank control. The cell growth inhibition rate was calculated by the following formula: […]
(§5) 4) IC50 calculation: The semi-inhibitory concentration of the compounds acting on cells was calculated using GradPad Prism 5 software according to the measured cell growth inhibition rate.

For test [2], the target named is T2, various mutants of kinase EGFR (BaF3 cell lines stably transfected with kinase) (Homo sapiens, UniProt P00533).
T2 construct: other: BaF3 cells stably transfected with EGFR Δ19Del; MTS, 48 h; other: BaF3 cell line stably transfected with EGFR Δ19Del
T2 sequence (P00533 with tags, fused parts or gaps DEL746-750): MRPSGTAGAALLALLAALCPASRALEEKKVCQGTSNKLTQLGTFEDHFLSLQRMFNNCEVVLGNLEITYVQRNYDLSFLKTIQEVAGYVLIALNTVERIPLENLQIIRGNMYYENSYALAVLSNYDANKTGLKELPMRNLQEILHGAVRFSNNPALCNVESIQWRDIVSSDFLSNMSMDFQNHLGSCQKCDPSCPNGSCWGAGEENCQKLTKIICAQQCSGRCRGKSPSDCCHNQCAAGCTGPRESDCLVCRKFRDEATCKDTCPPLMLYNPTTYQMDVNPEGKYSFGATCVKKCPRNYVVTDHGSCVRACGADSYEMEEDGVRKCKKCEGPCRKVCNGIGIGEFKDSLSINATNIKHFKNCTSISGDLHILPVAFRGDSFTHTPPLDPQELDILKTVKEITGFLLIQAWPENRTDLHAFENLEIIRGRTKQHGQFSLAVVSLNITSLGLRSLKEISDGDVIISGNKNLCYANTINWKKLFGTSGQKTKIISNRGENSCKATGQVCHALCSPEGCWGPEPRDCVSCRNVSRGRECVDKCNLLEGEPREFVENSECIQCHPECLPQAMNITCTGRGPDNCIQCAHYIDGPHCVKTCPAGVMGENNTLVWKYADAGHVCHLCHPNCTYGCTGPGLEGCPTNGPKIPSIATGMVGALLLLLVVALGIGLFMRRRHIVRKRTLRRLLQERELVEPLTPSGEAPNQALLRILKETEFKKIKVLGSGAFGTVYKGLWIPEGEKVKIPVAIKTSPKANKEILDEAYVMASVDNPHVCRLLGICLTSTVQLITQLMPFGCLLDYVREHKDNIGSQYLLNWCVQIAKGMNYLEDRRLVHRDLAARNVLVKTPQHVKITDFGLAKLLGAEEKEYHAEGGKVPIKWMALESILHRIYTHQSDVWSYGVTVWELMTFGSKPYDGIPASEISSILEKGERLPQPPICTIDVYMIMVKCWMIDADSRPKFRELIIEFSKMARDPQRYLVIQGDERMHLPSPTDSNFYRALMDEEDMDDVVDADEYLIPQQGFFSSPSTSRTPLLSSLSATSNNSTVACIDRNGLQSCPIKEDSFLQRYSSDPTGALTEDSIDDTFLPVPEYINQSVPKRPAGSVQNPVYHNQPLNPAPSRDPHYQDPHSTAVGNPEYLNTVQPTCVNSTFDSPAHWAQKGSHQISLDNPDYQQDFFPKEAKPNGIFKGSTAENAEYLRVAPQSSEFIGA
The conditions noted are these: BaF3 cells stably transfected with EGFR Δ19Del, read-out: IC50, growth inhibition, Δ19Del. How it is done:
as §1, §2, §3, §4, §5

Test [3] has as its target T3, various mutants of kinase EGFR (BaF3 cell lines stably transfected with kinase) (Homo sapiens, UniProt P00533, T790M, form not given).
T3 construct: other: BaF3 cells stably transfected with EGFR Δ19Del/T790M; MTS, 48 h; other: BaF3 cell line stably transfected with EGFR Δ19Del/T790M; MTS, 48
The conditions noted are these: BaF3 cells stably transfected with EGFR Δ19Del/T790M, read-out: IC50, growth inhibition, Δ19Del/T790M. How it is done: as §1, §2, §3, §4, §5

The target of test [4] is T4, various mutants of kinase EGFR (BaF3 cell lines stably transfected with kinase) (Homo sapiens, UniProt P00533, C797S/L858R/T790M).
T4 construct: expressed in transfected cells; host or cells: BaF3
T4 sequence (P00533 25-1210 T790M/C797S/L858R): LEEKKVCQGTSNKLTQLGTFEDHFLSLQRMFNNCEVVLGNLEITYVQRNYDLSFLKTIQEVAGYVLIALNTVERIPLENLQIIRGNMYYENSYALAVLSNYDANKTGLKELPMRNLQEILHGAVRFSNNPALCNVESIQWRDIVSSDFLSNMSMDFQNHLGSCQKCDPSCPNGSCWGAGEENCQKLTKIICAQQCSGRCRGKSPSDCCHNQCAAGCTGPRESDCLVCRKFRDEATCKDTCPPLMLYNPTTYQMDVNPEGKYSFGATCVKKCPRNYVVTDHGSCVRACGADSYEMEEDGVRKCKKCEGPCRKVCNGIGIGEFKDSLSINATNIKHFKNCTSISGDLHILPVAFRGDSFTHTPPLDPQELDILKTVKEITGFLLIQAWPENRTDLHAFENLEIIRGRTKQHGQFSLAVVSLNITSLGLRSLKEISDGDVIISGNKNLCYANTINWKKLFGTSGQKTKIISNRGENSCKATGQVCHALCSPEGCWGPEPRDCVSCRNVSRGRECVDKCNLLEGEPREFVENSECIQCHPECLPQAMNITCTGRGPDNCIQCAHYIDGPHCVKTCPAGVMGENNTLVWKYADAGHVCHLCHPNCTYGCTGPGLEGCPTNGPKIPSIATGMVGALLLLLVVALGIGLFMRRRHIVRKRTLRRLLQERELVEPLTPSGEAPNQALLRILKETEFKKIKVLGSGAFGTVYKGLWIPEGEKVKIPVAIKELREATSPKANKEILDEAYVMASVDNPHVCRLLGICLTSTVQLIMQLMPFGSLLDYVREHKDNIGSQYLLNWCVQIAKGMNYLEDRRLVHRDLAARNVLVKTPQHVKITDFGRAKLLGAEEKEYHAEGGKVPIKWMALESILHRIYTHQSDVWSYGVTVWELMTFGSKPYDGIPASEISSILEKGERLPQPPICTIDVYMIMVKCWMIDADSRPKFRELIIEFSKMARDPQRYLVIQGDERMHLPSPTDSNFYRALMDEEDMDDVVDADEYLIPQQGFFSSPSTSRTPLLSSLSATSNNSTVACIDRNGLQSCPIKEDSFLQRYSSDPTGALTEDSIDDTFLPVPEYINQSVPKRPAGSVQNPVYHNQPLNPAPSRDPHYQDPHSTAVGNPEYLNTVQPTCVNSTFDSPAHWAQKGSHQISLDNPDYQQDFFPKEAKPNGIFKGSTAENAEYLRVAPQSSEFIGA
The conditions noted are these: BaF3 cells stably transfected with EGFR L858R/T790M/C797S, read-out: IC50, growth inhibition, L858R/T790M/C797S. On the procedure:
as §1, §2, §3, §4, §5

In test [5] the target is T5, various mutants of kinase EGFR (BaF3 cell lines stably transfected with kinase) (Homo sapiens, UniProt P00533, T790M/C797S, form not given).
T5 construct: other: BaF3 cells stably transfected with EGFR Δ19Del/T790M/C797S; MTS, 48; other: BaF3 cell line stably transfected with EGFR Δ19Del/T790M/C7
T5 sequence (P00533 with tags, fused parts or gaps DEL746-750/T790M/C797S, form open): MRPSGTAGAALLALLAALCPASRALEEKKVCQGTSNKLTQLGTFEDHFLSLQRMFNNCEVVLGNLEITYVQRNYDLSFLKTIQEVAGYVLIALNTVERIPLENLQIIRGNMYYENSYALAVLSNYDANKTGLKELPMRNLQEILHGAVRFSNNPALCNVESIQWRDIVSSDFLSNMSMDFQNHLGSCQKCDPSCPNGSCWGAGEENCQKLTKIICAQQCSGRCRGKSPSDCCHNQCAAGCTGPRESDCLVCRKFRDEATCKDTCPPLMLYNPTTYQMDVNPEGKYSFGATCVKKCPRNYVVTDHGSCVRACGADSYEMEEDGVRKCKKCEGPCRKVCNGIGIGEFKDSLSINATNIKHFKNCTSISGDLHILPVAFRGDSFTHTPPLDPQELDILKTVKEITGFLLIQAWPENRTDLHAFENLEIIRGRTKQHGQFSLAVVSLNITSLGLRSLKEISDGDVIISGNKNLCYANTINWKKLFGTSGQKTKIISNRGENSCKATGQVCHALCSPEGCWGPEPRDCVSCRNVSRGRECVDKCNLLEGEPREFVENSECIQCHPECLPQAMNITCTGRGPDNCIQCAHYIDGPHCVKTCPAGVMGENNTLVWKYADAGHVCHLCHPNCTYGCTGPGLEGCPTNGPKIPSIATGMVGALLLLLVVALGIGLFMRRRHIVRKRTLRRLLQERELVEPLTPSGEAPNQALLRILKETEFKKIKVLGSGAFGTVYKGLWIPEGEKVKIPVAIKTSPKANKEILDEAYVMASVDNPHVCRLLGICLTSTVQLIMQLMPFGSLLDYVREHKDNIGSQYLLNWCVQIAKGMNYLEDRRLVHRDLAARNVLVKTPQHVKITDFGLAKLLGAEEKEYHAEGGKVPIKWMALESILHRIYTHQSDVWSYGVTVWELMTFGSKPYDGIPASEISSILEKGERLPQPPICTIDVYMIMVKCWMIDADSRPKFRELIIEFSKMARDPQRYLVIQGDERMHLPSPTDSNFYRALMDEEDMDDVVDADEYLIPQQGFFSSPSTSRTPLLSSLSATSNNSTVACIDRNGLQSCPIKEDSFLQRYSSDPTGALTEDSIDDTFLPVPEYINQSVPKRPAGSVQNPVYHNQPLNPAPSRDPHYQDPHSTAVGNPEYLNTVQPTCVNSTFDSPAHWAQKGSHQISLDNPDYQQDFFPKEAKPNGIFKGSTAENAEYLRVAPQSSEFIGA
The conditions noted are these: BaF3 cells stably transfected with EGFR Δ19Del/T790M/C797S, read-out: IC50, growth inhibition, Δ19Del/T790M/C797S. How it is done: as §1, §2, §3, §4, §5

Test [6] addresses T6, various mutants of kinase EGFR (BaF3 cell lines stably transfected with kinase) (Homo sapiens, UniProt P00533, L858R).
T6 construct: expressed in transfected cells; host or cells: BaF3
The conditions noted are these: BaF3 cells stably transfected with EGFR L858R, read-out: IC50, growth inhibition, L858R. How it is done: as §1, §2, §3, §4, §5

T3 sequence (P00533 with tags, fused parts or gaps DEL746-750/T790M, form open): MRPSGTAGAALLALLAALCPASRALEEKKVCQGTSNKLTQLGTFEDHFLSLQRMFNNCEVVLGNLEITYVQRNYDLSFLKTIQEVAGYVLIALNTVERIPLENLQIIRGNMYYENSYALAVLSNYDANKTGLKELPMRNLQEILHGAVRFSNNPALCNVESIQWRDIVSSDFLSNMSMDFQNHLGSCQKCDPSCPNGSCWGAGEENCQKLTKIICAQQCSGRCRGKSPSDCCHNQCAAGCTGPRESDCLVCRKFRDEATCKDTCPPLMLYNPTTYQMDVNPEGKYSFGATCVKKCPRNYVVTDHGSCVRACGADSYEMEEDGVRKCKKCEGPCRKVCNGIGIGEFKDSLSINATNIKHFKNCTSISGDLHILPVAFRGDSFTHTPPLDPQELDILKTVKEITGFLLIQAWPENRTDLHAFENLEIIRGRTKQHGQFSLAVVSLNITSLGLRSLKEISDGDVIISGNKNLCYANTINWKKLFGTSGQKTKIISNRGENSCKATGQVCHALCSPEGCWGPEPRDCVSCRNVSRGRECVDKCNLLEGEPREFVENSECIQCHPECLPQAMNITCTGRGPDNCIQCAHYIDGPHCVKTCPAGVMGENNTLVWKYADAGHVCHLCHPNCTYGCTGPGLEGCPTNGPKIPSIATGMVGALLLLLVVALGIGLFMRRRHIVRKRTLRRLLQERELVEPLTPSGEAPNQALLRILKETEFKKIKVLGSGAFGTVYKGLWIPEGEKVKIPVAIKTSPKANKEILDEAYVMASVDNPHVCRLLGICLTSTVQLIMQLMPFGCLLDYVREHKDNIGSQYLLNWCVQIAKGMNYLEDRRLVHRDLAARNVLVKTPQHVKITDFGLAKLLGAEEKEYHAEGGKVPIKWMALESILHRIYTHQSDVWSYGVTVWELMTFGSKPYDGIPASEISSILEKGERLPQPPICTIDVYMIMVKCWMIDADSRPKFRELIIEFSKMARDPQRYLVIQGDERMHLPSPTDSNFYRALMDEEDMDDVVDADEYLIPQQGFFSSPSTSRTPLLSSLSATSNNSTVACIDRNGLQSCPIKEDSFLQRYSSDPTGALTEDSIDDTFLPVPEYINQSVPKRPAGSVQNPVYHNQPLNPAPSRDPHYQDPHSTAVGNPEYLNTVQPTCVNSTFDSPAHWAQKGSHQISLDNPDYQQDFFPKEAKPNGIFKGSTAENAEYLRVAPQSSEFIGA

For the compound `CN1CCc2cc(OC(F)(F)F)c(Nc3ncc(Br)c(Nc4ccc5nccnc5c4N(C)S(C)(=O)=O)n3)cc2C1` [Compound I-90], the IC50 was in the range of 0.5 to 2.5 µM in test [1]; 0.05 to 0.5 µM in test [2]; 0.5 to 2.5 µM in test [3]; 0.05 to 0.5 µM in test [4]; 0.5 to 2.5 µM in test [5]; 0.5 to 2.5 µM in test [6].

For `Cc1cc2c(cc1Nc1ncc(Br)c(Nc3ccc4nccnc4c3N(C)S(C)(=O)=O)n1)CN(C)CC2` [Compound I-92], the IC50 was 0.05 to 0.5 µM in test [1]; 0.05 to 0.5 µM in test [2]; 0.05 to 0.5 µM in test [3]; at most 0.05 µM in test [4]; 0.05 to 0.5 µM in test [5]; 0.05 to 0.5 µM in test [6].

Regarding `CC1CN(C)CCc2ccc(Nc3ncc(Br)c(Nc4ccc5nccnc5c4N(C)S(C)(=O)=O)n3)cc21` (stereo not drawn) [Compound I-93], the IC50 in test [1], in test [2], in test [3], in test [4], in test [5] and in test [6] was at most 0.05 µM throughout.

For the compound `CCN(c1c(Nc2nc(Nc3cc(C)c(N4CCC(N5CCN(C)CC5)CC4)cc3OC)ncc2Br)ccc2nccnc12)S(C)(=O)=O` [Compound I-94], the IC50 in test [1], in test [2], in test [3], in test [4], in test [5] and in test [6] was at most 0.05 µM each time.

Turning to `CCc1cc(Nc2ncc(Br)c(Nc3ccc4nccnc4c3N(CC)S(C)(=O)=O)n2)c(OC)cc1N1CCC(N2CCN(C)CC2)CC1` [Compound I-95], the IC50 in test [1], in test [2], in test [3], in test [4], in test [5] and in test [6] was at most 0.05 µM throughout.

In the case of `CCc1cc(Nc2ncc(Br)c(Nc3ccc4nccnc4c3N(CC)S(C)(=O)=O)n2)c(OC(F)(F)F)cc1N1CCC(N2CCN(C)CC2)CC1` [Compound I-96], the IC50 in test [1] was 0.05 to 0.5 µM; in test [2], 0.05 to 0.5 µM; in test [3] it was 0.05 to 0.5 µM; in test [4], at most 0.05 µM; in test [5], at most 0.05 µM; in test [6] it was 0.05 to 0.5 µM.

Turning to `CCc1cc(Nc2ncc(Br)c(Nc3ccc4nccnc4c3N(CC)S(C)(=O)=O)n2)c(OC)cc1N1CCC(N(C)C)CC1` [Compound I-97], the IC50 in test [1], in test [2], in test [3], in test [4], in test [5] and in test [6] was at most 0.05 µM each time.

As to `CCc1cc(Nc2ncc(Br)c(Nc3ccc4nccnc4c3N(CC)S(C)(=O)=O)n2)c(OC)cc1N1CCC(N(C)C)C1` (stereo not drawn) [Compound I-98], the IC50 was at most 0.05 µM in test [1]; 0.05 to 0.5 µM in test [2]; at most 0.05 µM in test [3]; at most 0.05 µM in test [4]; at most 0.05 µM in test [5]; at most 0.05 µM in test [6].

As for `CCS(=O)(=O)N(C)c1c(Nc2nc(Nc3cc(C)c(N4CCC(N5CCN(C)CC5)CC4)cc3OC)ncc2Br)ccc2nccnc12` [Compound I-99], the IC50 in test [1], in test [2], in test [3], in test [4], in test [5] and in test [6] was at most 0.05 µM each time.

For `CCc1cc(Nc2ncc(Br)c(Nc3ccc4nccnc4c3N(C)S(=O)(=O)CC)n2)c(OC)cc1N1CCC(N2CCN(C)CC2)CC1` [Compound I-100], the IC50 in test [1], in test [2], in test [3], in test [4], in test [5] and in test [6] was at most 0.05 µM in each case.

Take `CCc1cc(Nc2ncc(Br)c(Nc3ccc4nccnc4c3N(C)S(=O)(=O)CC)n2)c(OC(F)(F)F)cc1N1CCC(N2CCN(C)CC2)CC1` [Compound I-101]: the IC50 in test [1] was 0.05 to 0.5 µM; in test [2], 0.05 to 0.5 µM; in test [3], at most 0.05 µM; in test [4] it was at most 0.05 µM; in test [5] it was at most 0.05 µM; in test [6], 0.05 to 0.5 µM.

On to `CCc1cc(Nc2ncc(Br)c(Nc3ccc4nccnc4c3N(C)S(=O)(=O)CC)n2)c(OC)cc1N1CCC(N(C)C)CC1` [Compound I-102], for which the IC50 in test [1], in test [2], in test [3], in test [4], in test [5] and in test [6] was at most 0.05 µM in each case.

For the compound `CCc1cc(Nc2ncc(Br)c(Nc3ccc4nccnc4c3N(C)S(=O)(=O)C3CC3)n2)c(OC)cc1N1CCC(N2CCN(C)CC2)CC1` [Compound I-105], the IC50 in test [1], in test [2], in test [3], in test [4], in test [5] and in test [6] was at most 0.05 µM in each case.

As to `CCc1cc(Nc2ncc(Br)c(Nc3ccc4nccnc4c3N(C)S(=O)(=O)C3CC3)n2)c(OC(F)(F)F)cc1N1CCC(N2CCN(C)CC2)CC1` [Compound I-106], the IC50 in test [1] is 0.05 to 0.5 µM; in test [2], 0.05 to 0.5 µM; in test [3] it was at most 0.05 µM; in test [4], 0.05 to 0.5 µM; in test [5], at most 0.05 µM; in test [6], 0.05 to 0.5 µM.

Consider `CCc1cc(Nc2ncc(Br)c(Nc3ccc4nccnc4c3N(C)S(=O)(=O)C3CC3)n2)c(OC)cc1N1CCC(N(C)C)C1` (stereo not drawn) [Compound I-108], for which the IC50 is at most 0.05 µM in test [1]; 0.05 to 0.5 µM in test [2]; at most 0.05 µM in test [3]; at most 0.05 µM in test [4]; at most 0.05 µM in test [5]; 0.05 to 0.5 µM in test [6].

For the compound `CCc1cc(Nc2ncc(Cl)c(Nc3ccc4nccnc4c3N(CC)S(C)(=O)=O)n2)c(OC)cc1N1CCC(N2CCN(C)CC2)CC1` [Compound I-110], the IC50 in test [1], in test [2], in test [3], in test [4], in test [5] and in test [6] was at most 0.05 µM throughout.

Regarding `CCc1cc(Nc2ncc(Cl)c(Nc3ccc4nccnc4c3N(CC)S(C)(=O)=O)n2)c(OC(F)(F)F)cc1N1CCC(N2CCN(C)CC2)CC1` [Compound I-111], the IC50 was at most 0.05 µM in test [1]; 0.05 to 0.5 µM in test [2]; 0.05 to 0.5 µM in test [3]; 0.05 to 0.5 µM in test [4]; at most 0.05 µM in test [5]; 0.05 to 0.5 µM in test [6].

On to `CCc1cc(Nc2ncc(Cl)c(Nc3ccc4nccnc4c3N(CC)S(C)(=O)=O)n2)c(OC)cc1N1CCC(N(C)C)CC1` [Compound I-112], for which the IC50 in test [1], in test [2], in test [3], in test [4], in test [5] and in test [6] was at most 0.05 µM each time.

For `CCc1cc(Nc2ncc(Cl)c(Nc3ccc4nccnc4c3N(CC)S(C)(=O)=O)n2)c(OC)cc1N1CCC(N(C)C)C1` (stereo not drawn) [Compound I-113], the IC50 is at most 0.05 µM in test [1]; 0.05 to 0.5 µM in test [2]; at most 0.05 µM in test [3]; at most 0.05 µM in test [4]; at most 0.05 µM in test [5]; at most 0.05 µM in test [6].
